PubChem BioAssay AID256 (DTP/NCI, 2004)
Values joined by “and” are separate entries in the source; they are usually repeats but may differ in a detail not shown here. Equal entries are not always repeated. Toxic doses and inconclusive results are not listed. How the source made its calls: active means survival T/C of 150% or more; inactive means T/C below 125% in these data.

Test system: CD2F1 mice, L1210 leukemia ip, survival T/C
Test: NCI In Vivo Anticancer Drug Screen. Data for tumor model L1210 Leukemia (intraperitoneal) in CD2F1 (CDF1) mice
Conditions: higher = longer survival
In short: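 Vehicle-treated tumor-bearing mice served as controls (C) for compound-treated mice (T). Reported figure is T divided by C.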

[1] = endpoint: mean survival time, dose: 100.0 mg/kg/injection, schedule: Q01DX009 (ip), vehicle: saline with Tween-80
[2] = endpoint: mean survival time, dose: 200.0 mg/kg/injection, schedule: Q01DX009 (ip), vehicle: saline with Tween-80
[3] = endpoint: mean survival time, dose: 400.0 mg/kg/injection, schedule: Q01DX009 (ip), vehicle: saline with Tween-80
[4] = endpoint: mean survival time, dose: 12.5 mg/kg/injection, schedule: Q01DX009 (ip), vehicle: saline with Tween-80
[5] = endpoint: mean survival time, dose: 25.0 mg/kg/injection, schedule: Q01DX009 (ip), vehicle: saline with Tween-80
[6] = endpoint: mean survival time, dose: 100.0 mg/kg/injection, schedule: Q04DX002 (ip), vehicle: saline with Tween-80
[7] = endpoint: mean survival time, dose: 200.0 mg/kg/injection, schedule: Q04DX002 (ip), vehicle: saline with Tween-80
[8] = endpoint: mean survival time, dose: 100.0 mg/kg/injection, schedule: Q04DX003 (ip), vehicle: saline with Tween-80
[9] = endpoint: mean survival time, dose: 200.0 mg/kg/injection, schedule: Q04DX003 (ip), vehicle: saline with Tween-80
[10] = endpoint: mean survival time, dose: 400.0 mg/kg/injection, schedule: Q04DX003 (ip), vehicle: saline with Tween-80

Measured: T/C

O=C(O)C(O)C(O)C(OC1OC(CO)C(O)C(O)C1O)C(O)CO.O=C(O)C(O)C(O)C(OC1OC(CO)C(O)C(O)C1O)C(O)CO.[NH-]C1CCCCC1[NH-].[Pt+2] (centres undefined)
active: endpoint: median survival time, dose: 12.5 mg/kg/injection, schedule: Q04DX003 (ip), vehicle: saline 162 % of control | endpoint: median survival time, dose: 25.0 mg/kg/injection, schedule: Q04DX003 (ip), vehicle: saline 195 % of control | endpoint: median survival time, dose: 50.0 mg/kg/injection, schedule: Q04DX003 (ip), vehicle: saline 158 % of control and 365 % of control
inactive: endpoint: median survival time, dose: 3.12 mg/kg/injection, schedule: Q04DX003 (ip), vehicle: saline 113 % of control | endpoint: median survival time, dose: 6.25 mg/kg/injection, schedule: Q04DX003 (ip), vehicle: saline 121 % of control | endpoint: median survival time, dose: 200.0 mg/kg/injection, schedule: Q04DX003 (ip), vehicle: saline 119 % of control

Cc1ccc2[nH]c3c(c2c1)CSCC3
inactive: [1] 104 % of control | [2] 102 % of control | [3] 102 % of control

C/C(=N/N(C)C)c1ccc2ccccc2c1
inactive: [4] 97 % of control | endpoint: mean survival time, dose: 25.0 mg/kg/injection, schedule: Q01DX001 (ip), vehicle: saline with Tween-80 103 % of control | [5] 95 % of control | endpoint: mean survival time, dose: 50.0 mg/kg/injection, schedule: Q01DX001 (ip), vehicle: saline with Tween-80 97 % of control | endpoint: mean survival time, dose: 100.0 mg/kg/injection, schedule: Q01DX001 (ip), vehicle: saline with Tween-80 103 % of control

NOCc1nnc(Nc2ccccc2)s1
inactive: endpoint: mean survival time, dose: 100.0 mg/kg/injection, schedule: Q01DX001 (ip), vehicle: saline 100 % of control | endpoint: mean survival time, dose: 200.0 mg/kg/injection, schedule: Q01DX001 (ip), vehicle: saline 97 % of control | endpoint: mean survival time, dose: 400.0 mg/kg/injection, schedule: Q01DX001 (ip), vehicle: saline 96 % of control

Cc1ccc(C2c3c(nc[nH]c3=O)OC2(C)C)cc1 (centres undefined)
inactive: [6] 114 % of control | [7] 106 % of control | endpoint: mean survival time, dose: 400.0 mg/kg/injection, schedule: Q04DX002 (ip), vehicle: saline with Tween-80 111 % of control

Nc1ccn(C2CC(N)C(CO)O2)c(=O)n1 (centres undefined)
active: endpoint: median survival time, dose: 5.0 mg/kg/injection, schedule: Q06HX018 (ip), vehicle: water 150 % of control | endpoint: median survival time, dose: 10.0 mg/kg/injection, schedule: Q06HX018 (ip), vehicle: water 154 % of control and 162 % of control | endpoint: median survival time, dose: 20.0 mg/kg/injection, schedule: Q06HX018 (ip), vehicle: water 198 % of control and 200 % of control | endpoint: median survival time, dose: 40.0 mg/kg/injection, schedule: Q06HX018 (ip), vehicle: water 152 % of control and 174 % of control

CCCCCCCCCCCCn1cnc2c(Cl)ncnc21
inactive: endpoint: mean survival time, dose: 12.5 mg/kg/injection, schedule: Q01DX005 (ip), vehicle: other 102 % of control | endpoint: mean survival time, dose: 25.0 mg/kg/injection, schedule: Q01DX005 (ip), vehicle: other 96 % of control | endpoint: mean survival time, dose: 50.0 mg/kg/injection, schedule: Q01DX005 (ip), vehicle: other 100 % of control | endpoint: mean survival time, dose: 100.0 mg/kg/injection, schedule: Q01DX005 (ip), vehicle: other 94 % of control | endpoint: mean survival time, dose: 200.0 mg/kg/injection, schedule: Q01DX005 (ip), vehicle: other 100 % of control

COc1ccc(C(OC(=O)Oc2ccccc2)c2ccccc2)cc1 (centres undefined)
inactive: endpoint: mean survival time, dose: 100.0 mg/kg/injection, schedule: Q04DX002 (ip), vehicle: other 93 % of control | endpoint: mean survival time, dose: 200.0 mg/kg/injection, schedule: Q04DX002 (ip), vehicle: other 96 % of control | endpoint: mean survival time, dose: 400.0 mg/kg/injection, schedule: Q04DX002 (ip), vehicle: other 96 % of control

CC(=O)Nc1ncc2nc(C)c(C)nc2n1
inactive: endpoint: mean survival time, dose: 50.0 mg/kg/injection, schedule: Q01DX009 (ip), vehicle: saline with Tween-80 98 % of control

CC(=O)OCC1OC(n2ccc3c(N)ncnc32)C(O)C1OC(C)=O (centres undefined)
inactive: endpoint: mean survival time, dose: 5.0 mg/kg/injection, schedule: Q01DX001 (ip), vehicle: saline 112 % of control | endpoint: mean survival time, dose: 10.0 mg/kg/injection, schedule: Q01DX001 (ip), vehicle: saline 110 % of control | endpoint: mean survival time, dose: 20.0 mg/kg/injection, schedule: Q01DX001 (ip), vehicle: saline 108 % of control

[Cl][Pt+2]([Cl])([Cl])[Cl].[NH-]Cc1ccccc1C[NH-]
inactive: endpoint: mean survival time, dose: 5.0 mg/kg/injection, schedule: Q04DX003 (ip), vehicle: saline with Tween-80 110 % of control | endpoint: mean survival time, dose: 10.0 mg/kg/injection, schedule: Q04DX003 (ip), vehicle: saline with Tween-80 118 % of control | endpoint: mean survival time, dose: 20.0 mg/kg/injection, schedule: Q04DX003 (ip), vehicle: saline with Tween-80 120 % of control | endpoint: mean survival time, dose: 40.0 mg/kg/injection, schedule: Q04DX003 (ip), vehicle: saline with Tween-80 86 % of control

CC(C)CCCC(C)C1CCC2C3CC4OC45CC(O)CCC5(C)C3CCC12C (centres undefined)
inactive: [8] 96 % of control | [9] 90 % of control | [10] 96 % of control

c1ccc(Sc2ccncc2)cc1
inactive: endpoint: mean survival time, dose: 25.0 mg/kg/injection, schedule: Q04DX002 (ip), vehicle: saline with Tween-80 102 % of control | endpoint: mean survival time, dose: 50.0 mg/kg/injection, schedule: Q04DX002 (ip), vehicle: saline with Tween-80 91 % of control | [6] 98 % of control and 105 % of control

CC[n+]1c(-c2ccccc2)c2cc(N)ccc2c2ccc(N)cc21 (tested in a mixture with another compound)
inactive: endpoint: mean survival time, dose: 5.0 mg/kg/injection, schedule: Q01DX009 (ip), vehicle: water 104 % of control | endpoint: mean survival time, dose: 10.0 mg/kg/injection, schedule: Q01DX009 (ip), vehicle: water 104 % of control | endpoint: mean survival time, dose: 20.0 mg/kg/injection, schedule: Q01DX009 (ip), vehicle: water 104 % of control | endpoint: mean survival time, dose: 40.0 mg/kg/injection, schedule: Q01DX009 (ip), vehicle: water 102 % of control | endpoint: mean survival time, dose: 80.0 mg/kg/injection, schedule: Q01DX009 (ip), vehicle: water 86 % of control

CN(C)CCCc1c2ccccc2nc2ccc(Cl)cc12
inactive: endpoint: mean survival time, dose: 12.0 mg/kg/injection, schedule: Q04DX003 (ip), vehicle: saline 102 % of control | endpoint: mean survival time, dose: 25.0 mg/kg/injection, schedule: Q04DX003 (ip), vehicle: saline 94 % of control | endpoint: mean survival time, dose: 50.0 mg/kg/injection, schedule: Q04DX003 (ip), vehicle: saline 98 % of control

N#C/C(=C\c1cc(Cl)cc(Cl)c1O)C(/C(C#N)=C/c1cc(Cl)cc(Cl)c1O)c1ccc2c(c1)OCO2 (centres undefined)
inactive: [1] 101 % of control | [8] 101 % of control | [2] 94 % of control | [9] 97 % of control | [3] 105 % of control | [10] 103 % of control

Nc1nc(SCc2ccccc2)c2[nH]cnc2n1
active: endpoint: mean survival time, dose: 31.3 mg/kg/injection, schedule: Q01DX009 (ip), vehicle: saline 158 % of control and 183 % of control | endpoint: mean survival time, dose: 37.5 mg/kg/injection, schedule: Q03DX003 (ip), vehicle: saline 151 % of control | endpoint: mean survival time, dose: 37.5 mg/kg/injection, schedule: Q04DX003 (ip), vehicle: saline 164 % of control | endpoint: mean survival time, dose: 62.5 mg/kg/injection, schedule: Q01DX009 (ip), vehicle: saline 180 % of control and 181 % of control | endpoint: mean survival time, dose: 75.0 mg/kg/injection, schedule: Q04DX003 (ip), vehicle: saline 160 % of control | endpoint: mean survival time, dose: 125.0 mg/kg/injection, schedule: Q01DX009 (ip), vehicle: saline 161 % of control | endpoint: mean survival time, dose: 150.0 mg/kg/injection, schedule: Q03DX003 (ip), vehicle: saline 150 % of control | endpoint: median survival time, dose: 31.3 mg/kg/injection, schedule: Q01DX009 (ip), vehicle: saline 150 % of control and 162 % of control | endpoint: median survival time, dose: 62.5 mg/kg/injection, schedule: Q01DX009 (ip), vehicle: saline 155 % of control and 156 % of control
inactive: endpoint: mean survival time, dose: 15.6 mg/kg/injection, schedule: Q01DX009 (ip), vehicle: saline 118 % of control | endpoint: mean survival time, dose: 150.0 mg/kg/injection, schedule: Q01DX007 (ip), vehicle: saline 107 % of control | endpoint: mean survival time, dose: 150.0 mg/kg/injection, schedule: Q01DX009 (ip), vehicle: saline 100 % of control | endpoint: median survival time, dose: 125.0 mg/kg/injection, schedule: Q01DX009 (ip), vehicle: saline 88 % of control and 112 % of control | endpoint: median survival time, dose: 250.0 mg/kg/injection, schedule: Q01DX009 (ip), vehicle: saline 87 % of control

O=C1c2cccc(Cl)c2C(=O)c2c1cccc2[N+](=O)[O-]
inactive: endpoint: mean survival time, dose: 100.0 mg/kg/injection, schedule: Q04DX003 (ip), vehicle: Klucel (hydroxypropylcellulose) (HPC) 90 % of control | endpoint: mean survival time, dose: 200.0 mg/kg/injection, schedule: Q04DX003 (ip), vehicle: Klucel (hydroxypropylcellulose) (HPC) 102 % of control | endpoint: mean survival time, dose: 400.0 mg/kg/injection, schedule: Q04DX003 (ip), vehicle: Klucel (hydroxypropylcellulose) (HPC) 98 % of control

CCCCC(NC(=O)CCl)C(=O)O (centres undefined)
inactive: [6] 95 % of control | [7] 103 % of control

O=C1CN(c2ccc3ccccc3c2)NO1
inactive: [8] 93 % of control | [9] 93 % of control

C/C=C/C(=O)NCC(C(C)C)/[N+]([O-])=N/O (centres undefined)
inactive: endpoint: mean survival time, dose: 6.25 mg/kg/injection, schedule: Q01DX009 (ip), vehicle: saline with Tween-80 94 % of control | [4] 103 % of control | [5] 94 % of control
